Patent US20220144853A1, “IMIDAZOLINE DERIVATIVES AS CXCR4 MODULATORS” (Université de Paris, priority 2019, published 2022)
Counter-ions that a name gives are not always drawn.

Row | SMILES | melting point [°C]
1 | CC1(C)CN2C(CSC3=N[C@H]4CCCC[C@@H]4N3)=CSC2=N1 (as salt: hydrochloride) [Example 4, 3-((((3aS,7aS)-3a,4,5,6,7,7a-hexahydro-1H-benzo[d]imidazol-2-yl)thio)methyl)-6,6-dimethyl-5,6-dihydroimidazo[2,1-b]thiazole dihydrochloride] | 167 to 175
2 | CC1(C)CN2C(CSC3=N[C@@H]4CCCC[C@@H]4N3)=CSC2=N1 (as salt: hydrochloride) [Example 5, 3-((((3R,7aS)-3a,4,5,6,7,7a-hexahydro-1H-benzo[d]imidazol-2-yl)thio)methyl)-6,6-dimethyl-5,6-dihydroimidazo[2,1-b]thiazole dihydrochloride] | > 250
3 | CC1(C)CN2C(CSC3=NCCN3)=CSC2=N1 (as salt: hydrochloride) [Example 8, 3-(((4,5-dihydro-1H-imidazol-2-yl)thio)methyl)-6,6-dimethyl-5,6-dihydroimidazo[2,1-b]thiazole dihydrochloride] | 140 to 144
4 | CN1CCN=C1SCC1=CSC2=NC(C)(C)CN12 (as salt: hydrochloride) [Example 11, 6,6-dimethyl-3-(((1-methyl-4,5-dihydro-1H-imidazol-2-yl)thio)methyl)-5,6-dihydroimidazo[2,1-b]thiazole dihydrochloride] | 128 to 132
5 | CC1(C)CN2C(CSC3=NCCCCN3)=CSC2=N1 (as salt: hydrochloride) [Example 12, 6,6-dimethyl-3-(((4,5,6,7-tetrahydro-1H-1,3-diazepin-2-yl)thio)methyl)-5,6-dihydroimidazo[2,1-b]thiazole dihydrochloride] | > 250
6 | CCCCC1CN=C(SCC2=CSC3=NC(C)(C)CN23)N1 (stereo not shown) (as salt: hydrochloride) [Example 13, 3-(((5-butyl-4,5-dihydro-1H-imidazol-2-yl)thio)methyl)-6,6-dimethyl-5,6-dihydroimidazo[2,1-b]thiazole dihydrochloride] | 95 to 104
7 | CC1(C)CN=C(SCC2=CSC3=NCCCN23)N1 (as salt: hydrochloride) [Example 14, 3-(((5,5-dimethyl-4,5-dihydro-1H-imidazol-2-yl)thio)methyl)-6,7-dihydro-5H-thiazolo[3,2-a]pyrimidine dihydrochloride] | 242 to 245
8 | CC1(C)CN=C(SCC2=CSC3=NCCCCN23)N1 (as salt: hydrochloride) [Example 15, 3-(((5,5-dimethyl-4,5-dihydro-1H-imidazol-2-yl)thio)methyl)-5,6,7,8-tetrahydrothiazolo[3,2-a][1,3]diazepine dihydrochloride] | 244 to 247
9 | CC1(C)CN2C(CSC3=NC(C)(C)C(C)(C)N3)=CSC2=N1 (as salt: hydrochloride) [Example 16, 6,6-dimethyl-3-(((4,4,5,5-tetramethyl-4,5-dihydro-1H-imidazol-2-yl)thio)methyl)-5,6-dihydroimidazo[2,1-b]thiazole dihydrochloride] | 185 to 205
10 | CC1(C)CN2C(CSC3=NCC(Cc4ccccc4)N3)=CSC2=N1 (stereo not shown) (as salt: hydrochloride) [Example 17, 3-(((5-benzyl-4,5-dihydro-1H-imidazol-2-yl)thio)methyl)-6,6-dimethyl-5,6-dihydroimidazo[2,1-b]thiazole dihydrochloride] | 83 to 103
11 | CC1(C)CN=C(SCC2=CSC3=NC(Cc4ccccc4)CN23)N1 (stereo not shown) (as salt: hydrochloride) [Example 18, 6-benzyl-3-(((5,5-dimethyl-4,5-dihydro-1H-imidazol-2-yl)thio)methyl)-5,6-dihydroimidazo[2,1-b]thiazole dihydrochloride] | 63 to 74
12 | CCCCC1CN2C(CSC3=NCC(C)(C)N3)=CSC2=N1 (stereo not shown) (as salt: hydrochloride) [Example 19, 6-butyl-3-(((4,4-dimethyl-4,5-dihydro-1H-imidazol-2-yl)thio)methyl)-5,6-dihydroinidazo[2,1-b]thiazole dihydrochloride] | 210 to 218
13 | CC1(C)CN=C(SCC2=CSC3=NC(C)(C)C(C)(C)N23)N1 (as salt: hydrochloride) [Example 20, 3-(((5,5-dimethyl-4,5-dihydro-1H-imidazol-2-yl)thio)methyl)-5,5,6,6-tetramethyl-5,6-dihydroimidazo[2,1-b]thiazole dihydrochloride] | 140 to 160
14 | CC1(C)CN=C(SCC2=CSC3=NCCN23)N1 (as salt: hydrochloride) [Example 21, 3-(((5,5-dimethyl-4,5-dihydro-1H-imidazol-2-yl)thio)methyl)-5,6-dihydroimidazo[2,1-b]thiazole dihydrochloride] | 220 to 230
15 | CC1(C)CN2C(CSC3=N[C@@H]4CCC[C@@H](C4)N3)=CSC2=N1 (as salt: hydrochloride) [Example 22, 3-((((1R,5S)-2,4-diazabicyclo[3.3.1]non-2-en-3-yl)thio)methyl)-6,6-dimethyl-5,6-dihydroimidazo[2,1-b]thiazole dihydrochloride] | > 250
16 | CC1(C)CN2C(CSC3=N[C@H]4COC[C@H]4N3)=CSC2=N1 (as salt: hydrochloride) [Example 25, (3aR,6aS)-2-(((6,6-dimethyl-5,6-dihydroinidazo[2,1-b]thiazol-3-yl)methyl)thio)-3a,4,6,6a-tetrahydro-1H-furo[3,4-d]imidazole dihydrochloride] | > 250

Row | SMILES | melting point [°C]
17 | C1=C(CSC2=NCCN2)N2CCCN=C2S1 (as salt: hydrochloride) [Example 26, 3-(((4,5-dihydro-1H-imidazol-2-yl)thio)methyl)-6,7-dihydro-5H-thiazolo[3,2-a]pyrimidine dihydrochloride] | > 250
18 | CC1(C)CN=C(SCC2=CSC3=NC(C)(C)CN23)NC1 (as salt: hydrochloride) [Example 28, 3-(((5,5-dimethyl-1,4,5,6-tetrahydropyrimidin-2-yl)thio)methyl)-6,6-dimethyl-5,6-dihydroimidazo[2,1-b]thiazole dihydrochloride] | > 250
19 | C1=C(CSC2=NCCCN2)N2CCCN=C2S1 (as salt: hydrochloride) [Example 29, 3-(((1,4,5,6-tetrahydropyrimidin-2-yl)thio)methyl)-6,7-dihydro-5H-thiazolo[3,2-a]pyrimidine dihydrochloride] | > 250
20 | CCCCC1CN=C(SCC2=CSC3=NCCN23)N1 (stereo not shown) (as salt: hydrochloride) [Example 30, 3-(((5-butyl-4,5-dihydro-1H-imidazol-2-yl)thio)methyl)-5,6-dihydroimidazo[2,1-b]thiazole dihydrochloride] | 176 to 178
21 | CC1(C)CN=C2SC=C(CSC3=NCC(C)(C)N3)N2C1 (as salt: hydrochloride) [Example 34, 3-(((5,5-dimethyl-4,5-dihydro-1H-imidazol-2-yl)thio)methyl)-6,6-dimethyl-6,7-dihydro-5H-thiazolo[3,2-a]pyrimidine dihydrochloride] | 169 to 175
22 | C1=C(CSC2=NCCCN2)N2CCN=C2S1 (as salt: hydrochloride) [Example 35, 3-(((1,4,5,6-tetrahydropyrimidin-2-yl)thio)methyl)-5,6-dihydroimidazo[2,1-b]thiazole dihydrochloride] | 100 to 102
23 | C1=C(CSC2=NCCCN2)N2CCCCN=C2S1 (as salt: hydrochloride) [Example 37, 3-(((1,4,5,6-tetrahydropyrimidin-2-yl)thio)methyl)-5,6,7,8-tetrahydrothiazolo[3,2-a][1,3]diazepine dihydrochloride] | > 250
24 | CC1(C)CN2C(CSC3=NCC4(CCCCC4)N3)=CSC2=N1 (as salt: hydrochloride) [Example 39, 3-(((1,3-diazaspiro[4.5]dec-2-en-2-yl)thio)methyl)-6,6-dimethyl-5,6-dihydroimidazo[2,1-b]thiazole dihydrochloride] | 225 to 231
25 | CC1(C)CN2C(CSC3=NCC4CCCCC4N3)=CSC2=N1 (stereo not shown) (as salt: hydrochloride) [Example 40, 6,6-dimethyl-3-(((1,4,4a,5,6,7,8,8a-octahydroquinazolin-2-yl)thio)methyl)-5,6-dihydroimidazo[2,1-b]thiazole dihydrochloride] | 245 to 249
26 | CC1(C)CN=C(SCCc2cccc3ncccc23)N1 (as salt: hydrochloride) [Example 41, 5-(2-((5,5-dimethyl-4,5-dihydro-1H-imidazol-2-yl)thio)ethyl)quinoline dihydrochloride] | 240 to 245
27 | CC1(C)CN=C(SCC2=CSC3=NC4(CCCCC4)CN23)N1 (as salt: hydrochloride) [Example 42, 3′-(((5,5-dimethyl-4,5-dihydro-1H-imidazol-2-yl)thio)methyl)-5′H-spiro[cyclohexane-1,6′-imidazo[2,1-b]thiazole] dihydrochloride] | 190 to 198
28 | CC1(C)CN=C(SCC2=CSC3=NC4CCCCC4CN23)N1 (stereo not shown) (as salt: hydrochloride) [Example 43, 3-(((5,5-dimethyl-4,5-dihydro-1H-imidazol-2-yl)thio)methyl)-5a,6,7,8,9,9a-hexahydro-5H-thiazolo[2,3-b]quinazoline dihydrochloride] | 241 to 245
29 | C1=C(CSC2=N[C@@H]3CCCC[C@H]3N2)N2CCN=C2S1 (as salt: hydrochloride) [Example 44, 3-((((3aR,7aR)-3a,4,5,6,7,7a-hexahydro-1H-benzo[d]imidazol-2-yl)thio)methyl)-5,6-dihydroimidazo[2,1-b]thiazole dihydrochloride] | 230 to 233
30 | C1=C(CSC2=N[C@@H]3CCCC[C@H]3N2)N2CCCN=C2S1 (as salt: hydrochloride) [Example 45, 3-((((3aR,7aR)-3a,4,5,6,7,7a-hexahydro-1H-benzo[d]imidazol-2-yl)thio)methyl)-6,7-dihydro-5H-thiazolo[3,2-a]pyrimidine dihydrochloride] | > 250
31 | C1=C(CSC2=N[C@@H]3CCCC[C@H]3N2)N2CCCCN=C2S1 (as salt: hydrochloride) [Example 46, 3-((((3aR,7aR)-3a,4,5,6,7,7a-hexahydro-1H-benzo[d]imidazol-2-yl)thio)methyl)-5,6,7,8-tetrahydrothiazolo[3,2-a][1,3]diazepine dihydrochloride] | > 250
